Experimental data from PubChem BioAssay (NCI).
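96-well plates; 48 h exposure; 5 concentrations. Endpoints by linear interpolation between flanking doses. Not reached: highest tested concentration assigned. The concentration for full growth arrest is given as TGI.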

Key:
Assay in all cases: NCI-60 cell line screen, 48 h
CAKI-1 renal = test system: CAKI-1 renal
HS 578T breast = test system: HS 578T breast
MOLT-4 leukemia = test system: MOLT-4 leukemia
NCI-H23 lung = test system: NCI-H23 lung
NCI/ADR-RES ovarian = test system: NCI/ADR-RES ovarian
SK-MEL-2 melanoma = test system: SK-MEL-2 melanoma
SK-MEL-28 melanoma = test system: SK-MEL-28 melanoma
SNB-75 CNS = test system: SNB-75 CNS
OVCAR-8 ovarian = test system: OVCAR-8 ovarian
SF-539 CNS = test system: SF-539 CNS

SMILES | TGI (CAKI-1 renal) [µM] | TGI (HS 578T breast) [µM] | TGI (MOLT-4 leukemia) [µM] | TGI (NCI-H23 lung) [µM] | TGI (NCI/ADR-RES ovarian) [µM] | TGI (SK-MEL-2 melanoma) [µM] | TGI (SK-MEL-28 melanoma) [µM] | TGI (SNB-75 CNS) [µM] | TGI (OVCAR-8 ovarian) [µM] | TGI (SF-539 CNS) [µM]
CCCCCCCCC/C=C1\CC(CO)(COC(=O)c2ccccc2)OC1=O (stereo not drawn) | 52.5 | 40.2 | > 100 | 41.9 | 51.9 | > 100 | 31.8 | 38.3 | – | –
O=c1[nH]c2ccccc2c2oc(-c3ccccc3)nc12 | 34.4 | 71.9 | 87.8 | > 100 | > 100 | > 100 | – | 45.8 | 59.1 | > 100
COC1/C=C/C(C)C(C(C)C(OC)C(C)CCC(=O)C(C)C(C/C=C/N(C)C=O)OC)OC(=O)/C=C/C=C(\C)CC(OC)C(OC)C2=CC(=O)O[C@@H](C(C)C(OC)CC(OC)/C=C/C(C)C(O)C1)[C@H]2O (stereo partly drawn) | – | 0.16 | > 100 | 0.373 | 0.766 | 0.388 | 0.878 | – | 0.829 | 0.381
Cc1cc([N+](=O)[O-])ccc1N=NC(=O)NNc1ccc([N+](=O)[O-])cc1C | 29.3 | – | 37.5 | 41.8 | – | 43.6 | 29.9 | 34.7 | 30 | –
COc1ccc2c(c1)-c1oc3ccccc3c(=O)c1CO2 | 50.6 | – | > 100 | > 100 | > 100 | 83.3 | – | 73 | > 100 | > 100
COC(=O)n1c(CBr)c(Br)c2ccccc21 | 49.9 | – | 76.3 | 71 | – | 47 | > 100 | 47.1 | > 100 | > 100
COc1cc(/C=C/C(=O)OC[C@H](Br)[C@H](OC(C)=O)c2ccc3c(c2)OCO3)cc(OC)c1OC | > 100 | – | > 100 | > 100 | > 100 | > 100 | > 100 | – | > 100 | > 100
CC(=O)NC1=C(NCc2ccc(Cl)cc2)C(=O)c2ccccc2C1=O | – | – | > 50 | 13.5 | – | 12.2 | 11.5 | 15.2 | 14.1 | 10.5
c1ccc(C2=C(c3ccccc3)P(c3ccccc3)C2)cc1 (stereo not drawn) | > 100 | > 100 | > 100 | – | > 100 | > 100 | > 100 | > 100 | > 100 | > 100
CC(=O)Nc1ccc(-c2nnc(SCC(=O)Nc3ccccc3C)o2)cc1 | – | – | > 100 | > 100 | – | > 100 | > 100 | > 100 | > 100 | > 100
O=C(O)C1SCCS1 | – | – | > 100 | > 100 | > 100 | – | > 100 | > 100 | > 100 | –
COc1ccc2c(c1)CC[C@@H]1[C@@H]2CC[C@]2(C)C(=O)/C(=C/c3cc(OC)c(OC)c(OC)c3)C[C@@H]12 | 63.3 | – | > 100 | 53.3 | 34.6 | 41.6 | – | 38.9 | – | 67
COc1cc2c(c(OC)c1OC)-c1ccc(SC)c(=O)cc1C(CC(=O)Oc1cccc(C#N)c1)C2 (stereo not drawn) | > 100 | – | > 100 | > 34.6 | – | – | > 100 | – | 6.88 | 0.602
